How the values were obtained:
[1] = system: thymus weight in rats; experiment: Thymus inhibition testing (subcutaneous administration); format: in vivo, rat
Experimental: Several further studies were undertaken to determine the effects of selected compounds of the invention on thymi weights in rats when the drugs were systemically administered. In each of these studies, male Sprague-Dawley rats were used. […] On the fifth day (48 hours following the last treatment), the animals were sacrificed and the thymi weights were recorded. […] It is evident that the higher the inhibition of thymus activity at a given dose, the more toxic the compound is.

[2] = system: granulation tissue formation caused by implantation of cotton pellets; experiment: Granuloma formation test (local cotton pellet granuloma assay); format: in vivo, rat; conditions: for Relative potency (ED40) / Relative potency (ED60): chloromethyl 11β-hydroxy-17α-isopropoxycarbonyloxyandrost-4-en-3-one-17β-carboxylate = 1; for ED40: dose causing 40% inhibition of granulation tissue weight; for ED50: dose causing 50% inhibition of granulation tissue weight; for ED60: dose causing 60% inhibition of granulation tissue weight
Experimental: The test compound was dissolved in acetone and aliquots of varying concentrations were injected into cotton pellets. The pellets were dried and then one pellet was implanted beneath the skin of each test rat. Six days later, the animals were sacrificed and the granulation tissue (granuloma) which formed in and around the implanted pellet was removed, dried and weighed. In addition, the thymi and adrenals were removed and weighed.

[3] = Table VIII, 10 mg/kg/day s.c., three days
[4] = rat, in vivo, sc, 0.003 mg/kg/day
[5] = rat, in vivo, sc, 0.01 mg/kg/day
[6] = rat, in vivo, sc, 0.03 mg/kg/day
[7] = rat, in vivo, sc, 0.1 mg/kg/day
[8] = rat, in vivo, sc, 0.3 mg/kg/day

SMILES: CC(C)OC(=O)O[C@]1(C(=O)OCCl)[C@@H](C)C[C@H]2[C@@H]3CCC4=CC(=O)C=C[C@]4(C)[C@@]3(F)[C@@H](O)C[C@@]21C [chloromethyl 9α-fluoro-11β-hydroxy-17α-isopropoxycarbonyloxy-16β-methylandrosta-1,4-dien-3-one-17β-carboxylate]
- Body weight gain [1, 3]: 5.3 ± 1.4 g
- Thymus wt. [1, 3]: 260 ± 26 mg
- Thymus wt. Inhibition [1, 3]: 52.7%
- Body wt. gain ([2]; Table IV, 1 μg/pellet): 33.0 ± 1.7 g
- Granulation tissue Dry wt. ([2]; Table IV, 1 μg/pellet): 44.4 ± 5.4 mg
- Granulation tissue Dry wt. Inhibition ([2]; Table IV, 1 μg/pellet): 45.3%
- Granulation tissue Wet wt. ([2]; Table IV, 1 μg/pellet): 423 ± 19 mg
- Granulation tissue Wet wt. Inhibition ([2]; Table IV, 1 μg/pellet): 25.3%
- Thymus wt. ([2]; Table IV, 1 μg/pellet): 526 ± 30 mg
- Body wt. gain ([2]; Table IV, 3 μg/pellet): 30.4 ± 1.1 g
- Granulation tissue Dry wt. ([2]; Table IV, 3 μg/pellet): 26.9 ± 4.4 mg
- Granulation tissue Dry wt. Inhibition ([2]; Table IV, 3 μg/pellet): 66.9%
- Granulation tissue Wet wt. ([2]; Table IV, 3 μg/pellet): 351 ± 19 mg
- Granulation tissue Wet wt. Inhibition ([2]; Table IV, 3 μg/pellet): 38.0%
- Thymus wt. ([2]; Table IV, 3 μg/pellet): 471 ± 20 mg
- Body wt. gain ([2]; Table IV, 10 μg/pellet): 33.0 ± 1.5 g
- Granulation tissue Dry wt. ([2]; Table IV, 10 μg/pellet): 29.9 ± 3.3 mg
- Granulation tissue Dry wt. Inhibition ([2]; Table IV, 10 μg/pellet): 63.2%
- Granulation tissue Wet wt. ([2]; Table IV, 10 μg/pellet): 362 ± 8 mg
- Granulation tissue Wet wt. Inhibition ([2]; Table IV, 10 μg/pellet): 36.0%
- Thymus wt. ([2]; Table IV, 10 μg/pellet): 474 ± 25 mg
- Body wt. gain ([2]; Table IV, 30 μg/pellet): 31.8 ± 1.7 g
- Granulation tissue Dry wt. ([2]; Table IV, 30 μg/pellet): 19.9 ± 2.3 mg
- Granulation tissue Dry wt. Inhibition ([2]; Table IV, 30 μg/pellet): 75.5%
- Granulation tissue Wet wt. ([2]; Table IV, 30 μg/pellet): 315 ± 12 mg
- Granulation tissue Wet wt. Inhibition ([2]; Table IV, 30 μg/pellet): 44.3%
- Thymus wt. ([2]; Table IV, 30 μg/pellet): 489 ± 26 mg
- Relative potency (ED40) [2]: 1228
- Relative potency (ED60) [2]: 184
- ED40 [2]: 0.25 μg/pellet
- ED50 [2]: 0.97 μg/pellet
- ED60 [2]: 3.75 μg/pellet

SMILES: CCC(=O)O[C@]1(C(=O)CCl)[C@@H](C)C[C@H]2[C@@H]3CCC4=CC(=O)C=C[C@]4(C)[C@@]3(F)[C@@H](O)C[C@@]21C [Clobetasol 17-propionate, reference compound]
- Relative Potency (TED40) ([1]; rat, in vivo): 8.6
- Relative Potency (TED50) ([1]; rat, in vivo): 11.2
- TED40 ([1]; rat, in vivo, sc): 0.035 mg
- TED50 ([1]; rat, in vivo, sc): 0.052 mg
- Body weight gain [1, 4]: 18.3 ± 0.6 g
- Thymus wt. [1, 4]: 537 ± 28 mg
- Thymus wt. Inhibition [1, 4]: 2.4%
- Body weight gain [1, 5]: 15.5 ± 1.1 g
- Thymus wt. [1, 5]: 498 ± 15 mg
- Thymus wt. Inhibition [1, 5]: 9.5%
- Body weight gain [1, 6]: 12.3 ± 1.3 g
- Thymus wt. [1, 6]: 363 ± 22 mg
- Thymus wt. Inhibition [1, 6]: 34.0%
- Body weight gain [1, 7]: -0.4 ± 1.3 g
- Thymus wt. [1, 7]: 149 ± 9 mg
- Thymus wt. Inhibition [1, 7]: 72.9%
- Body weight gain [1, 8]: -14.3 ± 1.3 g
- Thymus wt. [1, 8]: 63 ± 3 mg
- Thymus wt. Inhibition [1, 8]: 88.5%
- Body wt. gain ([2]; Table V-a, 1 μg/pellet): 33.0 ± 1.2 g
- Granulation tissue Dry wt. ([2]; Table V-a, 1 μg/pellet): 42.0 ± 5.8 mg
- Granulation tissue Dry wt. Inhibition ([2]; Table V-a, 1 μg/pellet): 47.6%
- Granulation tissue Wet wt. ([2]; Table V-a, 1 μg/pellet): 401 ± 29 mg
- Granulation tissue Wet wt. Inhibition ([2]; Table V-a, 1 μg/pellet): 23.6%
- Thymus wt. ([2]; Table V-a, 1 μg/pellet): 478 ± 22 mg
- Thymus wt. (Decrease %) ([2]; Table V-a, 1 μg/pellet): (3.4) %
- Body wt. gain ([2]; Table V-a, 3 μg/pellet): 24.9 ± 1.8 g
- Granulation tissue Dry wt. ([2]; Table V-a, 3 μg/pellet): 43.1 ± 8.9 mg
- Granulation tissue Dry wt. Inhibition ([2]; Table V-a, 3 μg/pellet): 46.2%
- Granulation tissue Wet wt. ([2]; Table V-a, 3 μg/pellet): 402 ± 40 mg
- Granulation tissue Wet wt. Inhibition ([2]; Table V-a, 3 μg/pellet): 23.4%
- Thymus wt. ([2]; Table V-a, 3 μg/pellet): 449 ± 21 mg
- Thymus wt. (Decrease %) ([2]; Table V-a, 3 μg/pellet): (9.3) %
- Body wt. gain ([2]; Table V-a, 10 μg/pellet): 25.0 ± 2.1 g
- Granulation tissue Dry wt. ([2]; Table V-a, 10 μg/pellet): 37.9 ± 6.8 mg
- Granulation tissue Dry wt. Inhibition ([2]; Table V-a, 10 μg/pellet): 52.7%
- Granulation tissue Wet wt. ([2]; Table V-a, 10 μg/pellet): 364 ± 25 mg
- Granulation tissue Wet wt. Inhibition ([2]; Table V-a, 10 μg/pellet): 30.7%
- Thymus wt. ([2]; Table V-a, 10 μg/pellet): 322 ± 22 mg
- Thymus wt. (Decrease %) ([2]; Table V-a, 10 μg/pellet): (34.9) %
- Body wt. gain ([2]; Table V-a, 30 μg/pellet): 24.8 ± 1.1 g
- Granulation tissue Dry wt. ([2]; Table V-a, 30 μg/pellet): 25.5 ± 2.1 mg
- Granulation tissue Dry wt. Inhibition ([2]; Table V-a, 30 μg/pellet): 68.2%
- Granulation tissue Wet wt. ([2]; Table V-a, 30 μg/pellet): 320 ± 10 mg
- Granulation tissue Wet wt. Inhibition ([2]; Table V-a, 30 μg/pellet): 39.0%
- Thymus wt. ([2]; Table V-a, 30 μg/pellet): 174 ± 26 mg
- Thymus wt. (Decrease %) ([2]; Table V-a, 30 μg/pellet): (64.8) %
- Body wt. gain ([2]; Table V-a, 100 μg/pellet): 15.9 ± 1.0 g
- Granulation tissue Dry wt. ([2]; Table V-a, 100 μg/pellet): 23.9 ± 3.3 mg
- Granulation tissue Dry wt. Inhibition ([2]; Table V-a, 100 μg/pellet): 70.2%
- Granulation tissue Wet wt. ([2]; Table V-a, 100 μg/pellet): 325 ± 12 mg
- Granulation tissue Wet wt. Inhibition ([2]; Table V-a, 100 μg/pellet): 38.1%
- Thymus wt. ([2]; Table V-a, 100 μg/pellet): 84 ± 3 mg
- Thymus wt. (Decrease %) ([2]; Table V-a, 100 μg/pellet): (83.0) %
- ED50 [2]: >3 μg/pellet
- ED60 [2]: >10 μg/pellet

SMILES: CCOC(=O)O[C@]1(C(=O)OCCl)[C@@H](C)C[C@H]2[C@@H]3CCC4=CC(=O)C=C[C@]4(C)[C@@]3(F)[C@@H](O)C[C@@]21C [chloromethyl 17α-ethoxycarbonyloxy-9α-fluoro-11β-hydroxy-16β-methylandrosta-1,4-dien-3-one-17β-carboxylate]
- Body weight gain [1, 3]: 2.4 ± 1.8 g
- Thymus wt. [1, 3]: 266 ± 20 mg
- Thymus wt. Inhibition [1, 3]: 51.6%
- Body wt. gain ([2]; Table V-a, 0.3 μg/pellet): 32.5 ± 1.1 g
- Granulation tissue Dry wt. ([2]; Table V-a, 0.3 μg/pellet): 61.8 ± 5.7 mg
- Granulation tissue Dry wt. Inhibition ([2]; Table V-a, 0.3 μg/pellet): 22.8%
- Granulation tissue Wet wt. ([2]; Table V-a, 0.3 μg/pellet): 499 ± 36 mg
- Granulation tissue Wet wt. Inhibition ([2]; Table V-a, 0.3 μg/pellet): 5.0%
- Thymus wt. ([2]; Table V-a, 0.3 μg/pellet): 501 ± 29 mg
- Body wt. gain ([2]; Table V-a, 1 μg/pellet): 36.3 ± 0.9 g
- Granulation tissue Dry wt. ([2]; Table V-a, 1 μg/pellet): 57.0 ± 6.2 mg
- Granulation tissue Dry wt. Inhibition ([2]; Table V-a, 1 μg/pellet): 28.8%
- Granulation tissue Wet wt. ([2]; Table V-a, 1 μg/pellet): 437 ± 24 mg
- Granulation tissue Wet wt. Inhibition ([2]; Table V-a, 1 μg/pellet): 16.8%
- Thymus wt. ([2]; Table V-a, 1 μg/pellet): 566 ± 31 mg
- Body wt. gain ([2]; Table V-a, 3 μg/pellet): 33.8 ± 1.3 g
- Granulation tissue Dry wt. ([2]; Table V-a, 3 μg/pellet): 47.5 ± 5.0 mg
- Granulation tissue Dry wt. Inhibition ([2]; Table V-a, 3 μg/pellet): 40.7%
- Granulation tissue Wet wt. ([2]; Table V-a, 3 μg/pellet): 422 ± 32 mg
- Granulation tissue Wet wt. Inhibition ([2]; Table V-a, 3 μg/pellet): 19.6%
- Thymus wt. ([2]; Table V-a, 3 μg/pellet): 500 ± 27 mg
- Body wt. gain ([2]; Table V-a, 10 μg/pellet): 31.1 ± 1.7 g
- Granulation tissue Dry wt. ([2]; Table V-a, 10 μg/pellet): 34.8 ± 5.5 mg
- Granulation tissue Dry wt. Inhibition ([2]; Table V-a, 10 μg/pellet): 56.6%
- Granulation tissue Wet wt. ([2]; Table V-a, 10 μg/pellet): 370 ± 21 mg
- Granulation tissue Wet wt. Inhibition ([2]; Table V-a, 10 μg/pellet): 29.5%
- Thymus wt. ([2]; Table V-a, 10 μg/pellet): 421 ± 30 mg
- Relative potency (ED40) [2]: 133
- Relative potency (ED60) [2]: 38
- ED40 [2]: 2.31 μg/pellet
- ED50 [2]: 6.45 μg/pellet
- ED60 [2]: 18.01 μg/pellet

Reference: patent US6610675B1 (priority 1980, dated 2003)
